Assay results taken from US20130012546A1 (priority 2009, published 2013).

Key:
Phytophthora infestans = type: in vivo; settings: tomato plants, preventive spray, 100 ppm of active ingredient, evaluated 7 days after inoculation
logP(HCOOH) by HPLC = type: physicochemical; settings: HPLC on reversed phase columns
[1] = pH 2.7, 0.1% formic acid in water / acetonitrile, linear gradient 10% to 95% acetonitrile, EEC directive 79/831 Annex V.A8
[2] = pH 2.7, 0.1% formic acid in water / acetonitrile gradient

Compound | Efficacy % (Phytophthora infestans) [%] | log p (logP(HCOOH) by HPLC; [1]) | log p (logP(HCOOH) by HPLC; [2])
CON=C(C(=O)Nc1cccc(CON=C(c2ccccc2)c2nnnn2C)n1)c1ccc(Cl)cc1Cl [Example 1] | 95 | 4.7 | 
CON=C(C(=O)Nc1cccc(CON=C(c2ccccc2)c2nnnn2C)n1)c1ccccc1Cl [Example 2] | 98 | 4.13 | 
CON=C(C(=O)Nc1cccc(CON=C(c2ccccc2)c2nnnn2C)n1)c1ccc(Cl)cc1 [Example 3] | 75 | 4.51 | 
C#CCOCC(=O)Nc1cccc(CON=C(c2ccccc2)c2nnnn2C)n1 [Example 4] | 85 | 2.8 | 
C=CCCCOCC(=O)Nc1cccc(CON=C(c2ccccc2)c2nnnn2C)n1 [Example 5] | 95 | 3.78 | 
CON=C(C(=O)Nc1nc(CON=C(c2ccccc2)c2nnnn2C)cs1)c1ccc(Cl)cc1 [Example 7] | 95 | 4.27 | 
CON=C(C(=O)Nc1nc(CON=C(c2ccccc2)c2nnnn2C)cs1)c1ccc(Br)cc1 [Example 8] | 93 | 4.37 | 
CON=C(C(=O)Nc1nc(CON=C(c2ccccc2)c2nnnn2C)cs1)c1ccc(Cl)cc1Cl [Example 9] | 95 | 4.41 | 
CON=C(C(=O)Nc1nc(CON=C(c2ccccc2)c2nnnn2C)cs1)c1cccc(Cl)c1Cl [Example 11] | 95 | 4.27 | 
C#CCOCC(=O)Nc1nc(CON=C(c2ccccc2)c2nnnn2C)cs1 [Example 13] | 85 | 2.64 | 
Cc1nnnn1C(=NOCc1cccc(NC(=O)OCCC2CCCCC2)n1)c1ccccc1 [Example 15] | 95 | 5.19 | 
Cc1nnnn1C(=NOCc1cccc(NC(=O)OCC2CC2)n1)c1ccccc1 [Example 17] | 93 | 3.52 | 
Cc1nnnn1C(=NOCc1cccc(NC(=O)OCCCC2CCCCC2)n1)c1ccccc1 [Example 19] | 95 | 5.62 | 
Cc1nnnn1C(=NOCc1cccc(NC(=O)OCCCC2CCCC2)n1)c1ccccc1 [Example 21] | 95 | 5.25 | 
C#CCOCC(=O)Nc1cccc(CON=C(c2ccccc2)n2nnnc2C)n1 [Example 22] | 70 | 2.86 | 
CON=C(C(=O)Nc1nc(CON=C(c2ccccc2)n2nnnc2C)cs1)c1ccc(Cl)cc1Cl [Example 23] | 90 | 4.49 | 
Cc1nnnn1C(=NOCc1csc(NC(=O)OCCC2CCCCC2)n1)c1ccccc1 [Example 24] | 88 | 4.8 | 
Cc1nnnn1C(=NOCc1csc(NC(=O)OCC2CCCCC2)n1)c1ccccc1 [Example 25] | 93 | 4.41 | 
Cc1nnnn1C(=NOCc1csc(NC(=O)OCC2CC2)n1)c1ccccc1 [Example 26] | 70 | 3.27 | 
CON=C(C(=O)Nc1nc(CON=C(c2ccccc2)n2nnnc2C)cs1)c1ccccc1Cl [Example 27] | 85 | 3.92 | 

Compound | Efficacy % (Phytophthora infestans) [%] | log p (logP(HCOOH) by HPLC; [1]) | log p (logP(HCOOH) by HPLC; [2])
CON=C(C(=O)Nc1nc(CON=C(c2ccccc2)n2nnnc2C)cs1)c1ccc(Cl)cc1 [Example 28] | 80 | 4.32 | 
CC(C)=NOC(C)C(=O)Nc1cccc(CO/N=C(/c2ccccc2)c2nnnn2C)n1 (stereo not drawn) [Example 32] | 70 | 3.25 | 
CC(=NOCC(=O)Nc1cccc(CON=C(c2ccccc2)c2nnnn2C)n1)c1ccccc1 [Example 33] | 80 | 3.92 | 
CC(=NOCC(=O)Nc1nc(CON=C(c2ccccc2)c2nnnn2C)cs1)C(C)(C)C [Example 34] | 90 | 3.99 | 
CC(C)=NOC(C)C(=O)Nc1nc(CO/N=C(/c2ccccc2)c2nnnn2C)cs1 (stereo not drawn) [Example 35] | 95 | 3.11 | 
CC(=NOCC(=O)Nc1nc(CON=C(c2ccccc2)c2nnnn2C)cs1)c1ccccc1 [Example 36] | 95 | 3.76 | 
CC(=NOCC(=O)Nc1nc(CON=C(c2ccccc2)n2nnnc2C)cs1)C(C)(C)C [Example 37] | 88 | 4.04 | 
CC(C)=NOC(C)C(=O)Nc1nc(CO/N=C(/c2ccccc2)n2nnnc2C)cs1 (stereo not drawn) [Example 38] | 88 | 3.17 | 
C=CCCOCC(=O)Nc1cccc(CO/N=C(/c2ccccc2)c2nnnn2C)n1 [Example 40] | 85 | 3.39 | 
C=CCCOC(C)C(=O)Nc1cccc(CO/N=C(/c2ccccc2)c2nnnn2C)n1 (stereo not drawn) [Example 41] | 100 | 3.69 | 
C=CCCOC(C)C(=O)Nc1nc(CO/N=C(/c2ccccc2)n2nnnc2C)cs1 (stereo not drawn) [Example 43] | 95 | 3.53 | 
C=CCCOCC(=O)Nc1nc(CO/N=C(/c2ccccc2)n2nnnc2C)cs1 [Example 44] | 93 | 3.23 | 
C#CCOC(C)C(=O)Nc1cccc(CO/N=C(/c2ccccc2)c2nnnn2C)n1 (stereo not drawn) [Example 50] | 95 | 3.04 | 
C#CCOC(C)C(=O)Nc1cccc(CO/N=C(/c2ccccc2)n2nnnc2C)n1 (stereo not drawn) [Example 52] | 93 | 3.11 | 
Cc1nnnn1/C(=N\OCc1csc(NC(=O)OC(C)CC2CC2)n1)c1ccccc1 (stereo not drawn) [Example 56] | 95 | 3.87 | 
Cn1nnnc1C(=NOCc1csc(NC(=O)OCC2CCCCC2)n1)c1ccccc1 [Example 61] | 98 | 4.37 | 
Cn1nnnc1C(=NOCc1cccc(NC(=O)COC2CCCCC2)n1)c1ccccc1 [Example 77] | 93 | 4.15 | 
Cc1nnnn1C(=NOCc1cccc(NC(=O)COC2CCCCC2)n1)c1ccccc1 [Example 79] | 90 | 4.25 | 
Cn1nnnc1C(=NOCc1csc(NC(=O)COC2CCC2)n1)c1ccccc1 [Example 80] | 90 | 3.19 | 
Cn1nnnc1C(=NOCc1cccc(NC(=O)COC2CCC2)n1)c1ccccc1 [Example 81] | 80 | 3.46 | 

Compound | Efficacy % (Phytophthora infestans) [%] | log p (logP(HCOOH) by HPLC; [1]) | log p (logP(HCOOH) by HPLC; [2])
Cc1nnnn1C(=NOCc1csc(NC(=O)COC2CCC2)n1)c1ccccc1 [Example 82] | 90 | 3.25 | 
Cc1nnnn1C(=NOCc1cccc(NC(=O)COC2CCC2)n1)c1ccccc1 [Example 83] | 90 | 3.55 | 
Cn1nnnc1C(=NOCc1cccc(NC(=O)COC2CCCC2)n1)c1ccccc1 [Example 85] | 95 | 3.83 | 
Cc1nnnn1C(=NOCc1cccc(NC(=O)COC2CCCC2)n1)c1ccccc1 [Example 87] | 90 | 3.92 | 
Cn1nnnc1C(=NOCc1csc(NC(=O)OC2CC3CCC2(C)C3(C)C)n1)c1ccccc1 (stereo not drawn) [Example 104] | 93 |  | 
Cn1nnnc1C(=NOCc1csc(NC(=O)OC2CC3CCC2(C)C3(C)C)n1)c1cccc(F)c1 (stereo not drawn) [Example 105] | 80 |  | 
CC1=C(CC(C)OCC(=O)Nc2nc(CON=C(c3ccccc3)n3nnnc3C)cs2)C1 (stereo not drawn) [compound 215] |  |  | 4.11
CC1=C(CC(C)OCC(=O)Nc2nc(CON=C(c3ccccc3)n3nnnc3C)cs2)C1(C)C (stereo not drawn) [compound 216] |  |  | 4.91
Cc1nnnn1C(=NOCc1csc(NC(=O)CC=COc2ccccc2)n1)c1ccccc1 [compound 217] |  |  | 3.61
CC1=C(CC(C)OCC(=O)Nc2nc(CON=C(c3ccccc3)c3nnnn3C)cs2)C1(C)C (stereo not drawn) [compound 218] |  |  | 4.83
CC1=C(CC(C)OCC(=O)Nc2nc(CON=C(c3ccccc3)c3nnnn3C)cs2)C1 (stereo not drawn) [compound 219] |  |  | 4.03
Cn1nnnc1C(=NOCc1csc(NC(=O)CC=COc2ccccc2)n1)c1ccccc1 [compound 220] |  |  | 3.57
CC1=C(CC(C)OCC(=O)Nc2cccc(CON=C(c3ccccc3)n3nnnc3C)n2)C1 (stereo not drawn) [compound 221] |  |  | 4.37
CC1=C(CC(C)OCC(=O)Nc2cccc(CON=C(c3ccccc3)n3nnnc3C)n2)C1(C)C (stereo not drawn) [compound 222] |  |  | 5.42
CC1=C(CC(C)OCC(=O)Nc2cccc(CON=C(c3ccccc3)c3nnnn3C)n2)C1 (stereo not drawn) [compound 223] |  |  | 4.3
CC1=C(CC(C)OCC(=O)Nc2cccc(CON=C(c3ccccc3)c3nnnn3C)n2)C1(C)C (stereo not drawn) [compound 224] |  |  | 5.14
Cn1nnnc1C(=NOCc1csc(NC(=O)CC[Si](C)(C)C)n1)c1ccccc1 [compound 227] |  |  | 4.01
Cn1nnnc1C(=NOCc1csc(NC(=O)OCCCC#C[Si](C)(C)C)n1)c1ccccc1 [compound 228] |  |  | 4.71
